The target of series [1] is T1, hKCC3a (Homo sapiens, UniProt Q9UHW9, L346X/L35X/L789X).
T1 construct: A full-length hKCC3a construct has also been generated for functional expression; expressed in transfected cells; host or cells: Xenopus laevis oocytes injected with cRNA
T1 sequence (Q9UHW9 1-1150 L35X/L346X/L789X): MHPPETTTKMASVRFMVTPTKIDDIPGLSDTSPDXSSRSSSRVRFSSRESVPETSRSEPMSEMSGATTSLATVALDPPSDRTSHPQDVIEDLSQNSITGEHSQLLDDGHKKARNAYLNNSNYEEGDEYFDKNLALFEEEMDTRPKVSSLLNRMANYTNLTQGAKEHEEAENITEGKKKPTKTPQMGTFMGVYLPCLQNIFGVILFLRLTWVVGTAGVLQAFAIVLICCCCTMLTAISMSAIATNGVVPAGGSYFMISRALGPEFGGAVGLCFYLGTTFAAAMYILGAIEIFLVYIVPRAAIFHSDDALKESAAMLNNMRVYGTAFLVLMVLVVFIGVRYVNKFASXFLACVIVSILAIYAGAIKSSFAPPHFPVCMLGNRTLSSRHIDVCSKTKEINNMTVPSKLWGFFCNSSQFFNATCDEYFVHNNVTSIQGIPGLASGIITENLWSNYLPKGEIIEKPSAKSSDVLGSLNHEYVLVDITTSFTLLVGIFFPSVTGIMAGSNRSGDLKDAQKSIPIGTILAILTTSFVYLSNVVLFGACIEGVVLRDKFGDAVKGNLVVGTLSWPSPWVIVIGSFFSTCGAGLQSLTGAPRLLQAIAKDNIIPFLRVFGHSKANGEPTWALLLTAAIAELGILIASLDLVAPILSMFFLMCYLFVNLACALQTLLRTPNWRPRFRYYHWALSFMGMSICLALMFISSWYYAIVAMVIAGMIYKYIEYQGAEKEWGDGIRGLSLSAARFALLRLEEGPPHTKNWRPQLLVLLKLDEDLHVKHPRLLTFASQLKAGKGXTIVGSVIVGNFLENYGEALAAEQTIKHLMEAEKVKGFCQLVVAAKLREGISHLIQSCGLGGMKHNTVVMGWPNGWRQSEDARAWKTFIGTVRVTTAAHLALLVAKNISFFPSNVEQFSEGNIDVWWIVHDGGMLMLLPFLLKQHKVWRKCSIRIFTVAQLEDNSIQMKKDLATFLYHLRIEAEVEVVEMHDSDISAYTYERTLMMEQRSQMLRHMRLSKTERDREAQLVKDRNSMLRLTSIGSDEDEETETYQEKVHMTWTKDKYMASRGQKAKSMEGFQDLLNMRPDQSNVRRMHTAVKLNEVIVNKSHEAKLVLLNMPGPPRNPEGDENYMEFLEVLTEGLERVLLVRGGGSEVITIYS
Kind of series: 86Rb+ uptake (K+-Cl- cotransport) in Xenopus oocytes injected with hKCC3a cRNA. It counts as cell-based.

In series [2] the test system is human red cell K^+—Cl^− cotransport. As to conditions: ML-7; physiological osmolality; cited from earlier work.
In series [3] the target is T2, mKCC4 (Mus musculus, UniProt Q9WVL3).
T2 construct: a full-length mKCC4 cDNA was used as a standard in the Xenopus expression vector pGEMHE; expressed in transfected cells; host or cells: Xenopus laevis oocytes injected with cRNA (pGEMHE, T7 transcript)
T2 sequence (Q9WVL3 1-1083 L71X/L155X/L467X/L586X/L639X/L1023X): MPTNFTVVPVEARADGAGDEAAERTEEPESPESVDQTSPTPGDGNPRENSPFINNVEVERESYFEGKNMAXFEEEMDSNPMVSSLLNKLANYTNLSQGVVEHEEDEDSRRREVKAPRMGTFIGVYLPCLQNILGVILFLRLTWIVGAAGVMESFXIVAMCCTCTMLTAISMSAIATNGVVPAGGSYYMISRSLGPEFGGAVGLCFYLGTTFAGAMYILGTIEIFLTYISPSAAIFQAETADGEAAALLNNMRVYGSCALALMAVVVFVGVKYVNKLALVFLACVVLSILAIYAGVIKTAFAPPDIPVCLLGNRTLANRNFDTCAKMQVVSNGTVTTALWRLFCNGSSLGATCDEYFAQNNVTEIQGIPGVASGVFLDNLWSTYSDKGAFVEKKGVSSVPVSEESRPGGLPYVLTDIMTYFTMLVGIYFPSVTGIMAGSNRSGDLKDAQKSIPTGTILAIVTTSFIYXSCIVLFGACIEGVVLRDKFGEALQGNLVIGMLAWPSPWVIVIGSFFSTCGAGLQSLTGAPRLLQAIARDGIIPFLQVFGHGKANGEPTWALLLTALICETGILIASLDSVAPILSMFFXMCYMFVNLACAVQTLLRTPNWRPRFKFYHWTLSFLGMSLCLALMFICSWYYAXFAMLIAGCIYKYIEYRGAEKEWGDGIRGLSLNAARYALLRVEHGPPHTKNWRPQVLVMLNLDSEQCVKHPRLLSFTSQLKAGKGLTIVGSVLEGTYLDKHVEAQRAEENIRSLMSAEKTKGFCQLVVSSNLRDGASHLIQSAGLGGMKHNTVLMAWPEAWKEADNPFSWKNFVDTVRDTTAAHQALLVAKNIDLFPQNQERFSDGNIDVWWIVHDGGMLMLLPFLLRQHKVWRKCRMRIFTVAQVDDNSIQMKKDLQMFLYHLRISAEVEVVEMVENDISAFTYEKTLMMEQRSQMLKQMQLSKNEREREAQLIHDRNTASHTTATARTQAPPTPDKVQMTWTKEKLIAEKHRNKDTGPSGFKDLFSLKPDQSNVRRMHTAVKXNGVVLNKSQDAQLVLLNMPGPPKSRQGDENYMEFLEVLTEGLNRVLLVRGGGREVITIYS
Kind of series: 86Rb+ uptake (K+-Cl- cotransport) in Xenopus oocytes injected with mKCC4 cRNA. The conditions noted are these: 10 mM potassium salt of anion substitute vs 10 mM KCl reference; hypotonic. It counts as cell-based. How it is done:
Oocytes were surgically collected from anesthetized female Xenopus adults under 0.17% tricaine and incubated for 1 hour with vigorous shaking in frog Ringer ND96 (96 mM sodium chloride, 2 mM potassium chloride, 1.8 mM calcium chloride, 1.0 mM magnesium chloride, and 5 mM Hepes/Tris, pH 7.4) in the presence of 2 mg/ml collagenase B. Oocytes were then washed four times in ND96, manually defolliculated, and incubated overnight in ND96 at 18° C. On the next day, defolliculated stage V–VI oocytes were injected with 50 nl of water or a solution containing cRNA at a concentration of 0.25–0.5 μg/μl (25 ng/oocyte). Oocytes were incubated at 17–18° C. in ND96 (96 mM sodium chloride, 2 mM potassium chloride, 1.8 mM calcium chloride, 1.0 mM magnesium chloride, and 5 mM Hepes/Tris, pH 7.4), supplemented with 2.5 mM sodium pyruvate and 5 mg/100 ml gentamicin, for 3–4 days. The incubation medium was changed every 24 hours. On the day of the experiment, oocytes were switched to Cl^−-free ND96 (96 mM Na^+ Na^+ isethionate, 2 mM K^+ gluconate, 6 mM Ca^2+ gluconate, 1 mM Mg^2+ gluconate, 5 mM Hepes, 2.5 mM sodium pyruvate, 5 mg/100 ml gentamicin, pH 7.4) for 2 hours prior to the uptake assay.
For functional expression and in vitro translation, a full-length mKCC4 cDNA was used as a standard in the Xenopus expression vector pGEMHE (Liman et al. (1992) Neuron 9:861–871). The resulting construct contains nucleotides 55–3812 of mKCC4 (SEQ ID NO:13). For functional comparison with mKCC4, a full-length rabbit KCC1 cDNA was subcloned into pGEMHE. […] […] Transcription product integrity was confirmed on agarose gels, and concentration was determined by absorbance reading at 260 nm (DU 640 available from Beckman of Fullerton, Calif.).
K^+—Cl^− cotransport was assessed by measuring tracer ^86Rb^+ uptake (NEN® Life Science Products of Boston, Mass.) in experimental groups of at least 15 oocytes. […] All uptake solutions also contained 1.8 mM CaCl2, 1 mM MgCl2, 5 mM Hepes, pH 7.4, and were supplemented with 1 mM ouabain and […] ^86Rb^+. Isotonic conditions were generated by supplementing the same solutions with 3.5 g/100 ml sucrose to reach isosmolar conditions for oocytes (˜210 mOsm/kg). Ouabain was added to prevent ^86Rb^+ uptake via the Na^+—K^+-ATPase. The absence of extracellular Na^+ and the hypotonicity of the uptake medium prevented ^86Rb^+ uptake via the endogenous Na^+—K^+-2Cl^− cotransporter that is present in oocytes (Gamba et al. (1994) J Biol Chem 269:17713–17722).
All uptake assays were performed at 32° C. At the end of the uptake period, oocytes were washed five times in ice-cold uptake solution without isotope to remove extracellular fluid tracer. Oocytes were dissolved in 10% SDS, and tracer activity was determined for each oocyte by β-scintillation counting.
To determine the ion transport kinetics of KCC4 and KCC1, ^86Rb^+ uptake experiments were performed in variable concentrations of K^+ and Cl^−. […]

In series [4] the test system is KCC2^+/− heterozygous and wild type mice. Kind of series: PTZ seizure induction in wild type and KCC2+/- mice. It counts as in vivo, mouse. As to conditions: daily 60 mg/kg PTZ. How it is done: A reduced threshold for induction of seizure activity was also observed in KCC2^+/− heterozygous mice. Seizures were induced in wild type and litter-matched KCC2^+/− mice by daily injections of 60 mg/kg pentylenetetrazole (PTZ), a blocker of the GABAA receptor. Animal behavior was observed during a one-hour interval following PTZ injection, and the severity of seizure induction was scored according to the following indicators: score=0, absence of seizure acitivity; score=1, ear and facial twitching; score=2, myoclonic body jerks; score=3, clonic forelimb convulsions […]; score=5, death. Mice assigned a score of 3, 4, or 5 were removed from the group. FIG. 34 summarizes the number of mice assigned a score of 1 or 2 as a function of time. A significant difference between wild type and KCC2^+/− heterozygous mice was observed, corresponding to an approximately 2-fold increase in the susceptibility of KCC2^+/− heterozygous mice to seizure activity.

On to `O=S(=O)(c1cccc2c(I)cccc12)N1CCCNCC1` [ML-7], for which the “K+-Cl- cotransport (86Rb+ uptake) by KCC3a in the presence of ML-7” value in series [1] (100 μM ML-7, 160 mOsm/kg) turned out to be 1698±298 pmol/oocyte/hour. The “effect on hKCC3a K+-Cl- cotransport” value in series [1] (ML-7, 180 mOsm/kg) is “modest activation”. Moreover, the “effect on K+-Cl- cotransport” value in series [1] (ML-7, isotonic conditions) is on record as “no effect”. For the same compound, the “effect on human red cell K+-Cl- cotransport” value in series [2] is “modest activation”.
For `O=P([O-])(O)O.[K+]` [KH2PO4], the “86Rb+ influx in the presence of other anions, percentage of KCC4 function” value in series [3] is given as 22±5.9%.
The same measure, in the same setting: the value for `N#C[S-].[K+]` [KSCN] was “did not support transport”.
As for `C1CCc2nnnn2CC1` [PTZ, pentylenetetrazole], the “percentage of deaths in response to PTZ injection” value is “Approximately 35%” in series [4] (KCC2+/− heterozygous mice) and less than 5% in series [4] (wild type mice).
In the case of `[I-].[K+]` [KI], in series [3], the “86Rb+ influx in the presence of other anions, percentage of KCC4 function” value is 17±3.8%.
The same measure, in the same setting: the value for `[Br-].[K+]` [KBr] was 58±9%; that for `O=C([O-])[C@H](O)[C@@H](O)[C@H](O)[C@H](O)CO.[K+]` [potassium gluconate] was “did not support transport”.
